# Test results published in paper PMC5218480 (PLoS ONE, 2017).
# System: MV-4-11 cells
# Experiment: Gene expression microarray analysis (Affymetrix PrimeView) and GSEA
# Format: cell-based, human
# Design: RFU PODN (11730768_x_at) / Fold change /veh PODN (11730768_x_at) / RFU LINC00158 (11744669_a_at) / Fold change /veh LINC00158 (11744669_a_at) / RFU DUSP10 (11751237_a_at) / Fold change /veh DUSP10 (11751237_a_at) / RFU ID3 (11757404_x_at) / Fold change /veh ID3 (11757404_x_at) / RFU PLEKHG5 (11737974_s_at) / Fold change /veh PLEKHG5 (11737974_s_at) / RFU LRRC4B (11730491_at) / Fold change /veh LRRC4B (11730491_at) / RFU GIMAP4 (11747438_a_at) / Fold change /veh GIMAP4 (11747438_a_at) / RFU KRT8 (11758183_x_at) / Fold change /veh KRT8 (11758183_x_at) / RFU CNN1 (11734310_a_at) / Fold change /veh CNN1 (11734310_a_at) / RFU VPS37D (11726825_at) / Fold change /veh VPS37D (11726825_at) / RFU C10orf10 (11716522_x_at) / Fold change /veh C10orf10 (11716522_x_at) / RFU KIR2DL2 /// KIR2DL4 /// KIR2DL5A /// KIR2DL5B /// KIR2DS1 /// KIR2DS2 /// KIR2DS3 /// KIR2DS4 /// KIR3DL3 /// KIR3DL3 /// KIR3DS1 (11738374_at) / Fold change /veh KIR2DL2 /// KIR2DL4 /// KIR2DL5A /// KIR2DL5B /// KIR2DS1 /// KIR2DS2 /// KIR2DS3 /// KIR2DS4 /// KIR3DL3 /// KIR3DL3 /// KIR3DS1 (11738374_at) / RFU C1QL1 (11718748_at) / Fold change /veh C1QL1 (11718748_at) / RFU TMPRSS4 (11747572_a_at) / Fold change /veh TMPRSS4 (11747572_a_at) / RFU HAMP (11756126_x_at) / Fold change /veh HAMP (11756126_x_at) / RFU RNFT2 (11725882_a_at) / Fold change /veh RNFT2 (11725882_a_at) / RFU NR4A2 (11747474_a_at) / Fold change /veh NR4A2 (11747474_a_at) / RFU ABCC12 (11746883_a_at) / Fold change /veh ABCC12 (11746883_a_at) / RFU TMEM136 (11760407_x_at) / Fold change /veh TMEM136 (11760407_x_at) / RFU CLDN22 /// WWC2 (11732394_at) / Fold change /veh CLDN22 /// WWC2 (11732394_at) / RFU HLA-DPB1 (11760878_x_at) / Fold change /veh HLA-DPB1 (11760878_x_at) / RFU SPINT1 (11716480_a_at) / Fold change /veh SPINT1 (11716480_a_at) / RFU GAP43 (11754022_s_at) / Fold change /veh GAP43 (11754022_s_at) / RFU A4GNT (11735810_at) / Fold change /veh A4GNT (11735810_at) / RFU PRB3 (11715151_x_at) / Fold change /veh PRB3 (11715151_x_at) / RFU TUBB4B (11761932_at) / Fold change /veh TUBB4B (11761932_at) / RFU CAPN14 (11732068_a_at) / Fold change /veh CAPN14 (11732068_a_at) / RFU TMCC2 (11721928_a_at) / Fold change /veh TMCC2 (11721928_a_at) / RFU IRGQ (11745062_a_at) / Fold change /veh IRGQ (11745062_a_at) / RFU FAM174B (11720279_a_at) / Fold change /veh FAM174B (11720279_a_at) / RFU TMPRSS4 (11748680_a_at) / Fold change /veh TMPRSS4 (11748680_a_at) / RFU FAM212B (11763350_a_at) / Fold change /veh FAM212B (11763350_a_at) / RFU PLEKHG5 (11743358_a_at) / Fold change /veh PLEKHG5 (11743358_a_at) / RFU ZSCAN30 (11745921_a_at) / Fold change /veh ZSCAN30 (11745921_a_at) / RFU CMKLR1 (11741424_a_at) / Fold change /veh CMKLR1 (11741424_a_at) / RFU LOC101060620 /// MAPK8IP1 (11723275_at) / Fold change /veh LOC101060620 /// MAPK8IP1 (11723275_at) / RFU SPTSSB (11747773_x_at) / Fold change /veh SPTSSB (11747773_x_at) / RFU PRSS12 (11739890_at) / Fold change /veh PRSS12 (11739890_at) / RFU BIN1 (11741810_x_at) / Fold change /veh BIN1 (11741810_x_at) / RFU WNT11 (11732464_a_at) / Fold change /veh WNT11 (11732464_a_at) / RFU C10orf10 (11716521_a_at) / Fold change /veh C10orf10 (11716521_a_at) / RFU C5orf56 (11738089_at) / Fold change /veh C5orf56 (11738089_at) / RFU CYB561 (11721691_x_at) / Fold change /veh CYB561 (11721691_x_at) / RFU ANKRD19P (11752326_a_at) / Fold change /veh ANKRD19P (11752326_a_at) / RFU OR2T12 /// OR2T33 /// OR2T8 (11738714_s_at) / Fold change /veh OR2T12 /// OR2T33 /// OR2T8 (11738714_s_at) / RFU VCAN (11748164_a_at) / Fold change /veh VCAN (11748164_a_at) / RFU JSRP1 (11732532_at) / Fold change /veh JSRP1 (11732532_at) / RFU KRTAP10-11 (11738290_x_at) / Fold change /veh KRTAP10-11 (11738290_x_at) / RFU MYO3A (11730013_a_at) / Fold change /veh MYO3A (11730013_a_at) / RFU EBF3 (11725865_a_at) / Fold change /veh EBF3 (11725865_a_at) / RFU CAMK2N1 (11719241_x_at) / Fold change /veh CAMK2N1 (11719241_x_at) / RFU C5orf56 (11738088_a_at) / Fold change /veh C5orf56 (11738088_a_at) / RFU OLFML3 (11715873_a_at) / Fold change /veh OLFML3 (11715873_a_at) / RFU LOC100653217 /// NTM (11731650_a_at) / Fold change /veh LOC100653217 /// NTM (11731650_a_at) / RFU MAPK11 (11762145_a_at) / Fold change /veh MAPK11 (11762145_a_at) / RFU FIZ1 (11724087_x_at) / Fold change /veh FIZ1 (11724087_x_at) / RFU OASL (11726364_x_at) / Fold change /veh OASL (11726364_x_at) / RFU SOX15 (11748057_x_at) / Fold change /veh SOX15 (11748057_x_at) / RFU CD79A (11719716_a_at) / Fold change /veh CD79A (11719716_a_at) / RFU HIST1H1D (11736915_at) / Fold change /veh HIST1H1D (11736915_at) / RFU CASKIN2 (11723855_a_at) / Fold change /veh CASKIN2 (11723855_a_at) / RFU LOC730098 (11760151_x_at) / Fold change /veh LOC730098 (11760151_x_at) / RFU OR4N2 (11742367_at) / Fold change /veh OR4N2 (11742367_at) / RFU PRRT2 (11749266_a_at) / Fold change /veh PRRT2 (11749266_a_at) / RFU SNX32 (11753110_a_at) / Fold change /veh SNX32 (11753110_a_at) / RFU CDHR5 (11726645_a_at) / Fold change /veh CDHR5 (11726645_a_at) / RFU RCAN1 (11760418_a_at) / Fold change /veh RCAN1 (11760418_a_at) / RFU FAM167A (11723789_a_at) / Fold change /veh FAM167A (11723789_a_at) / RFU FAM26E (11764081_at) / Fold change /veh FAM26E (11764081_at) / RFU ISYNA1 (11749810_s_at) / Fold change /veh ISYNA1 (11749810_s_at) / RFU ACY1 (11761880_at) / Fold change /veh ACY1 (11761880_at) / RFU 11764098_at / Fold change /veh 11764098_at / RFU SAMD14 (11745864_x_at) / Fold change /veh SAMD14 (11745864_x_at) / RFU NPB (11741838_a_at) / Fold change /veh NPB (11741838_a_at) / RFU TMPRSS6 (11731388_a_at) / Fold change /veh TMPRSS6 (11731388_a_at) / RFU KRTAP10-2 (11738614_at) / Fold change /veh KRTAP10-2 (11738614_at) / RFU ARHGAP8 /// PRR5-ARHGAP8 (11727945_x_at) / Fold change /veh ARHGAP8 /// PRR5-ARHGAP8 (11727945_x_at) / RFU KRTAP5-7 /// NADSYN1 (11734609_at) / Fold change /veh KRTAP5-7 /// NADSYN1 (11734609_at) / RFU RASL12 (11751679_a_at) / Fold change /veh RASL12 (11751679_a_at) / RFU CDKN2B (11736163_a_at) / Fold change /veh CDKN2B (11736163_a_at) / RFU PRF1 (11729649_at) / Fold change /veh PRF1 (11729649_at) / RFU, ZNF638 /// ZNF638-IT1 / Fold change vs veh, ZNF638 /// ZNF638-IT1 / RFU, PANK3 / Fold change vs veh, PANK3 / RFU, SH3YL1 / Fold change vs veh, SH3YL1 / RFU, ZEB2 / Fold change vs veh, ZEB2 / RFU, NRIP1 / Fold change vs veh, NRIP1 / RFU, PTTG1IP / Fold change vs veh, PTTG1IP / RFU, CAPN2 / Fold change vs veh, CAPN2 / RFU, MED14 / Fold change vs veh, MED14 / RFU, SNORA58 / Fold change vs veh, SNORA58 / RFU, C1orf63 / Fold change vs veh, C1orf63 / RFU, LRRFIP1 / Fold change vs veh, LRRFIP1 / RFU, NDUFAF7 / Fold change vs veh, NDUFAF7 / RFU, SLC12A2 / Fold change vs veh, SLC12A2 / RFU, IBTK / Fold change vs veh, IBTK / RFU, ESF1 / Fold change vs veh, ESF1 / Fold change vs veh, TMEM50B / RFU, TAOK1 / Fold change vs veh, TAOK1 / RFU, ACBD3 / Fold change vs veh, ACBD3 / RFU, TMA16 / Fold change vs veh, TMA16 / RFU, RWDD3 / Fold change vs veh, RWDD3 / RFU, BCAT1 / Fold change vs veh, BCAT1 / RFU, EDEM3 / Fold change vs veh, EDEM3 / RFU, TMEM33 / Fold change vs veh, TMEM33 / RFU, WDR75 / Fold change vs veh, WDR75 / RFU, AHCTF1 / Fold change vs veh, AHCTF1 / RFU, TFRC / Fold change vs veh, TFRC / RFU, ZDHHC17 / Fold change vs veh, ZDHHC17 / RFU, NOM1 / Fold change vs veh, NOM1 / RFU, ARL8B / Fold change vs veh, ARL8B / RFU, ZBTB11 / Fold change vs veh, ZBTB11 / RFU, TAMM41 / Fold change vs veh, TAMM41 / RFU, KIAA1704 /// LOC100996395 / Fold change vs veh, KIAA1704 /// LOC100996395 / RFU, ING1 / Fold change vs veh, ING1 / RFU, TRMT61B / Fold change vs veh, TRMT61B / RFU, FUBP3 / Fold change vs veh, FUBP3 / RFU, TP53 / Fold change vs veh, TP53 / RFU, TNKS2 / Fold change vs veh, TNKS2 / RFU, ZFP14 / Fold change vs veh, ZFP14 / RFU, ACTR2 / Fold change vs veh, ACTR2 / RFU, PPP3R1 / Fold change vs veh, PPP3R1 / RFU, PIK3R1 / Fold change vs veh, PIK3R1 / RFU, HNRNPA1 / Fold change vs veh, HNRNPA1 / RFU, RNF170 / Fold change vs veh, RNF170 / RFU, ZNF28 / Fold change vs veh, ZNF28 / RFU, RNGTT / Fold change vs veh, RNGTT / RFU, OGT / Fold change vs veh, OGT / RFU, BRD1 / Fold change vs veh, BRD1 / RFU, MARS / Fold change vs veh, MARS / RFU, ZNF655 / Fold change vs veh, ZNF655 / RFU, FAHD1 / Fold change vs veh, FAHD1 / RFU, BDP1 / Fold change vs veh, BDP1 / RFU, LRRCC1 / Fold change vs veh, LRRCC1 / RFU, ARID1A / Fold change vs veh, ARID1A / RFU, ZNF146 / Fold change vs veh, ZNF146 / RFU, ZNF330 / Fold change vs veh, ZNF330 / RFU, GPN3 / Fold change vs veh, GPN3 / RFU, C9orf123 / Fold change vs veh, C9orf123 / RFU, N4BP2L2 / Fold change vs veh, N4BP2L2 / RFU, ARFIP1 / Fold change vs veh, ARFIP1 / RFU, FAM179B / Fold change vs veh, FAM179B / RFU, BCL10 / Fold change vs veh, BCL10 / RFU, UHRF1BP1L / Fold change vs veh, UHRF1BP1L / RFU, BET1 / Fold change vs veh, BET1 / RFU, CNOT2 / Fold change vs veh, CNOT2 / RFU, ZNF268 / Fold change vs veh, ZNF268 / Fold change vs veh, ZNF507 / RFU, DGCR2 / Fold change vs veh, DGCR2 / RFU, WDSUB1 / Fold change vs veh, WDSUB1 / Fold change vs veh, HSP90B1 /// MIR3652 / RFU, ADSS / Fold change vs veh, ADSS / RFU, GK / Fold change vs veh, GK / RFU, ZNF148 / Fold change vs veh, ZNF148 / RFU, TAF9 / Fold change vs veh, TAF9 / RFU, SLC1A5 / Fold change vs veh, SLC1A5 / RFU, SLMO2 / Fold change vs veh, SLMO2 / RFU, ABCC4 / Fold change vs veh, ABCC4 / RFU, LOC101060439 /// RAP1B / Fold change vs veh, LOC101060439 /// RAP1B / RFU, RFX7 / Fold change vs veh, RFX7 / RFU, GTPBP10 / Fold change vs veh, GTPBP10 / RFU, CNEP1R1 / Fold change vs veh, CNEP1R1 / RFU, BIVM-ERCC5 /// ERCC5 / Fold change vs veh, BIVM-ERCC5 /// ERCC5 / RFU, ILF3 / Fold change vs veh, ILF3 / RFU 11762660_at / Fold change /veh 11762660_at / RFU VCAN (11757783_s_at) / Fold change /veh VCAN (11757783_s_at) / RFU DDX43 (11728927_at) / Fold change /veh DDX43 (11728927_at) / RFU KRT8 (11758188_x_at) / Fold change /veh KRT8 (11758188_x_at) / RFU NKD1 (11759106_at) / Fold change /veh NKD1 (11759106_at) / RFU SRD5A1 (11742802_a_at) / Fold change /veh SRD5A1 (11742802_a_at) / RFU TPSAB1 /// TPSB2 (11721975_s_at) / Fold change /veh TPSAB1 /// TPSB2 (11721975_s_at) / RFU GSTM3 (11746129_a_at) / Fold change /veh GSTM3 (11746129_a_at) / RFU IL23R (11737362_x_at) / Fold change /veh IL23R (11737362_x_at) / RFU TMEM51 (11727254_a_at) / Fold change /veh TMEM51 (11727254_a_at) / RFU PIWIL2 (11732686_x_at) / Fold change /veh PIWIL2 (11732686_x_at) / RFU ORM1 (11744905_x_at) / Fold change /veh ORM1 (11744905_x_at) / RFU CCDC152 (11743942_at) / Fold change /veh CCDC152 (11743942_at) / RFU ECM1 (11717891_a_at) / Fold change /veh ECM1 (11717891_a_at) / RFU IL23R (11748794_a_at) / Fold change /veh IL23R (11748794_a_at) / RFU TNFAIP8L3 (11732012_x_at) / Fold change /veh TNFAIP8L3 (11732012_x_at) / RFU MBOAT4 (11741988_at) / Fold change /veh MBOAT4 (11741988_at) / RFU 11764193_at / Fold change /veh 11764193_at / RFU TMEM53 (11763286_at) / Fold change /veh TMEM53 (11763286_at) / RFU MAGEB2 (11727129_at) / Fold change /veh MAGEB2 (11727129_at) / RFU TMEM200A (11744735_a_at) / Fold change /veh TMEM200A (11744735_a_at) / RFU CCDC152 (11751479_a_at) / Fold change /veh CCDC152 (11751479_a_at) / RFU FAM211A (11726209_a_at) / Fold change /veh FAM211A (11726209_a_at) / RFU RGS16 (11746705_a_at) / Fold change /veh RGS16 (11746705_a_at) / RFU VCAN (11755009_s_at) / Fold change /veh VCAN (11755009_s_at) / RFU RHOB (11743442_s_at) / Fold change /veh RHOB (11743442_s_at) / RFU RGS16 (11720943_a_at) / Fold change /veh RGS16 (11720943_a_at) / RFU RGS16 (11720944_at) / Fold change /veh RGS16 (11720944_at) / RFU, VPS4B / Fold change vs veh, VPS4B / RFU, CREB1 / Fold change vs veh, CREB1 / RFU, DNAJC13 / Fold change vs veh, DNAJC13 / RFU, GNAQ / Fold change vs veh, GNAQ / RFU, CDK5R1 / Fold change vs veh, CDK5R1 / RFU, ZRANB3 / Fold change vs veh, ZRANB3 / RFU, CUL4A / Fold change vs veh, CUL4A / RFU, CCNY / Fold change vs veh, CCNY / RFU, UFL1 / Fold change vs veh, UFL1 / RFU, COG3 / Fold change vs veh, COG3 / RFU, DIAPH2 / Fold change vs veh, DIAPH2 / RFU, SKA2 / Fold change vs veh, SKA2 / RFU, AFF3 / Fold change vs veh, AFF3 / RFU, LMF1 / Fold change vs veh, LMF1 / RFU, IPO11 / Fold change vs veh, IPO11 / RFU, DFFB / Fold change vs veh, DFFB / RFU, FOXP1 / Fold change vs veh, FOXP1 / RFU, CARD8 / Fold change vs veh, CARD8 / RFU, STRN3 / Fold change vs veh, STRN3 / RFU, ADK / Fold change vs veh, ADK / RFU, RASSF2 / Fold change vs veh, RASSF2 / RFU, WIPF1 / Fold change vs veh, WIPF1 / RFU, LARP1B / Fold change vs veh, LARP1B / RFU, RASA1 / Fold change vs veh, RASA1 / RFU, RB1 / Fold change vs veh, RB1 / RFU, PPFIA1 / Fold change vs veh, PPFIA1 / RFU, MAT2A / Fold change vs veh, MAT2A / RFU, CCT5 / Fold change vs veh, CCT5 / RFU, WDR92 / Fold change vs veh, WDR92 / RFU, CUX1 / Fold change vs veh, CUX1 / RFU, TTC7A / Fold change vs veh, TTC7A / RFU, TMEM135 / Fold change vs veh, TMEM135 / RFU, DEPTOR / Fold change vs veh, DEPTOR / RFU, CPM / Fold change vs veh, CPM / RFU, DNAJB6 / Fold change vs veh, DNAJB6 / RFU, CACNA2D3 / Fold change vs veh, CACNA2D3 / RFU, DTX4 / Fold change vs veh, DTX4 / RFU, TFCP2 / Fold change vs veh, TFCP2 / RFU, GMCL1 /// GMCL1P1 / Fold change vs veh, GMCL1 /// GMCL1P1 / RFU, AEBP2 / Fold change vs veh, AEBP2 / RFU, SNHG1 /// SNORD22 /// SNORD25 /// SNORD26 /// SNORD27 /// SNORD28 /// SNORD29 /// SNORD31 / Fold change vs veh, SNHG1 /// SNORD22 /// SNORD25 /// SNORD26 /// SNORD27 /// SNORD28 /// SNORD29 /// SNORD31 / Fold change (Aza/veh), C12orf56 (ProbeSet 11735607_a_at) / Fold change (ACY-1035/veh), C12orf56 (ProbeSet 11735607_a_at) / Fold change (Aza/veh), FGFR1OP (ProbeSet 11751329_s_at) / Fold change (ACY-1035/veh), FGFR1OP (ProbeSet 11751329_s_at) / Fold change (Aza/veh), VPS36 (ProbeSet 11739960_a_at) / Fold change (ACY-1035/veh), VPS36 (ProbeSet 11739960_a_at) / RFU SYPL1 (11715823_x_at) / Fold change /veh SYPL1 (11715823_x_at) / RFU IGFBP7 (11715501_s_at) / Fold change /veh IGFBP7 (11715501_s_at) / RFU REEP3 (11722064_at) / Fold change /veh REEP3 (11722064_at) / RFU IGLL1 (11728026_x_at) / Fold change /veh IGLL1 (11728026_x_at): dose or concentration left out as unconfirmed
# Settings: MV-4-11 cells, 48 hours
smiles,measurement,value
Nc1ccc(-c2cccs2)cc1NC(=O)c1ccc2c(c1)cc(C1CC1)n2CCN1CCOCC1 [ACY-1035],Fold change /veh C5orf56 (11738089_at),1.04
